Measurements from patent publication US20150376198A1, “MODULATORS OF VASOPRESSIN RECEPTORS WITH THERAPEUTIC POTENTIAL” (priority 2013, published 2015).

How the values were obtained:
OT receptor = biological target: T1, OT receptor (Homo sapiens, UniProt P30559); assay: OT receptor binding (primary binding at 10 μM and Ki); settings: for inhibition at 10 µM: read-out: OT binding, mean % inhibition; for Ki: read-out: OT binding Ki
T1 sequence (P30559 1-389): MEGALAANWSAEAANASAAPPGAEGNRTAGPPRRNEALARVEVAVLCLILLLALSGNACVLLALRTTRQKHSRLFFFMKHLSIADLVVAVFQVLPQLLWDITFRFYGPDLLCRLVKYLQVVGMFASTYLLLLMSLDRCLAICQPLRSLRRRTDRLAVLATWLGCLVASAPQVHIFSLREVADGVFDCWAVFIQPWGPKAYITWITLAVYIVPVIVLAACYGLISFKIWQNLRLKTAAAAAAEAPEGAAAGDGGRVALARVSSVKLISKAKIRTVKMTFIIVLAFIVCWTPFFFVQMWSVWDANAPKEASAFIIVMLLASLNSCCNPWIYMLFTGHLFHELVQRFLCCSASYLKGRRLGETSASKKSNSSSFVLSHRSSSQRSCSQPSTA
Description: (§1) The default concentration for primary binding experiments was 10 μM.
(§2) See Examples for further details.

human V1a receptor = biological target: T2, human V1a receptor (Homo sapiens, UniProt P37288); assay: Vasopressin V1a receptor binding assay (3H-AVP competition, CHO cells); settings: for inhibition at 10 µM: read-out: V1A binding, mean % inhibition
T2 construct: expressed in transfected cells; host or cells: CHO cells (G418-selected hV1a cell line)
Description: (§3) Data represent Ki values (nM) or mean % inhibition (indicated as %) for exemplary compounds of formula (I) tested versus receptor subtypes.
as §1
Vasopressin V1a Receptor Binding Assay.
A cell line expressing the human Via receptor in CHO cells is used. The hV1a cDNA sequence is described by Thibonnier et al., (1994), and the expression method is the same as described by Morel et al. (1992). The hV1a cell line is grown in alpha-MEM with 10% fetal bovine serum and 250 ug/ml G418 (Gibco, Grand Island, N.Y., USA). For competitive binding assay, hV1a cells are plated into 6-well culture plate at 1:10 dilution from a confluency flask, and maintained in culture for at least two days. Culture medium is then removed, cells washed with 2 ml binding buffer (35 mM Hepes, 0.25% BSA, 1× DMEM, PH=7.0). To each well, 990 μl binding buffer containing 1 nM 3H-AVP is added, followed by 10 μl series diluted Example compounds dissolved in DMSO. All incubations are done in triplicate and dose-inhibition curves consisting of total binding (DMSO) and 5 concentrations (0.1, 1.0, 10, 100, and 1000 nM) of test agents encompassing the IC50. 100 nM cold AVP (Sigma) is used to assess non-specific binding. Cells are incubated for 45 minutes at 37° C., assay mixture is removed and each well is washed three times with PBS (pH=7.4). 1 ml 2% SDS was added per well, plates were let sit for 30 minutes. The whole content of a well is transferred to a scintillation vial. Each well is rinsed with 0.5 ml PBS which is then added to the corresponding vial. Scintillation fluid (Ecoscint) is then added at 3 ml per vial. Samples are counted in a liquid scintillation counter (Beckman LS3801). IC50 values are calculated by Prism Curve fitting software.

V2 receptor = V2 receptor (Homo sapiens, UniProt P30518); assay: V2 receptor binding (primary binding at 10 μM and Ki); settings: for inhibition at 10 µM: read-out: V2 binding, mean % inhibition
Description: as §3, §1, §2

[1] = biological target: human Arginine Vasopressin Receptor 1a (AVPR1a) (Homo sapiens, UniProt P37288); assay: cell-based; settings: read-out: V1a-R IC50
human Arginine Vasopressin Receptor 1a (AVPR1a), sequence (P37288 whole entry): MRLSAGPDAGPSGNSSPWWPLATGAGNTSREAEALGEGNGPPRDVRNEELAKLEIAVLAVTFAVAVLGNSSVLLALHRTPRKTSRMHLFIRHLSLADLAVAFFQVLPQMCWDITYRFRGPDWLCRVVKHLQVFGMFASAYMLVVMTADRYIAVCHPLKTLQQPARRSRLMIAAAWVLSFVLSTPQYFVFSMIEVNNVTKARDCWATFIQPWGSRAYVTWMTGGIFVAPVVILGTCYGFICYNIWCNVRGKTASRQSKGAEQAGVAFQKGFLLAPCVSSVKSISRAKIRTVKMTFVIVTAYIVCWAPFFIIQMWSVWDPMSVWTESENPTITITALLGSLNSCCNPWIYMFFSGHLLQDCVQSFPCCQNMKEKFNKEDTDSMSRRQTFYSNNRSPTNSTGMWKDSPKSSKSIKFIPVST

T2 sequence (P37288 whole entry): as above
V2 receptor, sequence (P30518 whole entry): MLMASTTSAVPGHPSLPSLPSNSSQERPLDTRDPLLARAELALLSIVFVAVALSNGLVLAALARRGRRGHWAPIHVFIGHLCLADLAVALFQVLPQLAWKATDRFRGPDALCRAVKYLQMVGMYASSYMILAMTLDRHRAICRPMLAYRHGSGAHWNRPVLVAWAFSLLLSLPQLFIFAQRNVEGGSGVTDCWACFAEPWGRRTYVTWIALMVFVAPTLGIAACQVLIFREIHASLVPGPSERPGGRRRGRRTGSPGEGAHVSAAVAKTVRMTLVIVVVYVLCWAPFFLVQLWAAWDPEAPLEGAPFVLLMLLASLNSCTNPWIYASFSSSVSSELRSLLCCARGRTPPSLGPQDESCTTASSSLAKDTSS

SMILES | IC50 [1] | other results
COc1ccc(NC(=O)N2CCN(c3ccccc3C)CC2)cc1 [Compound 1] | – | inhibition at 10 µM (OT receptor): 12.8%; inhibition at 10 µM (human V1a receptor): 34.1%
CCN(C(=O)N1CCN(c2ccccc2C)CC1)c1ccc(OC)cc1 [Compound 2] | – | Ki (OT receptor): 13 nM; inhibition at 10 µM (V2 receptor): 33.6%; Ki (human V1a receptor): 10 nM
COc1ccc(N(CC2CC2)C(=O)N2CCN(c3ccccc3C)CC2)cc1 [Compound 3] | – | Ki (OT receptor): 1 nM; Ki (V2 receptor): 708 nM; Ki (human V1a receptor): 0.9 nM
COCCN(C(=O)N1CCN(c2ccccc2C)CC1)c1ccc(OC)cc1 [Compound 4] | – | Ki (OT receptor): 21 nM; inhibition at 10 µM (V2 receptor): 24.5%; Ki (human V1a receptor): 10 nM
Cc1ccccc1N1CCN(C(=O)N(CC2CC2)CC2CCCO2)CC1 (centres unmarked) [Compound 5] | – | Ki (OT receptor): 326 nM; inhibition at 10 µM (V2 receptor): 17.7%; Ki (human V1a receptor): 785 nM
CCN(C(=O)N1CCN(c2ncccc2C(F)(F)F)CC1)c1ccc(OC)cc1 [Compound 6] | – | Ki (OT receptor): 45 nM; inhibition at 10 µM (V2 receptor): 33%; Ki (human V1a receptor): 113 nM
CCN(C(=O)N1CCN(Cc2ccccc2)CC1)c1ccc(OC)cc1 [Compound 8] | – | Ki (OT receptor): 1180 nM; inhibition at 10 µM (human V1a receptor): 35.1%
CCN(C(=O)N1CCN(C(=O)c2ccccc2)CC1)c1ccc(OC)cc1 [Compound 9] | – | inhibition at 10 µM (OT receptor): 22.3%
CCN(C(=O)N1CCN(C(=O)OC(C)(C)C)CC1)c1ccc(OC)cc1 [Compound 10] | – | inhibition at 10 µM (OT receptor): 17.1%; inhibition at 10 µM (human V1a receptor): 2.2%
Cc1cc(-c2nnc(C)n2-c2ccccc2)ccc1CNC(=O)N1CCN(Cc2cc(O)cc(O)c2)CC1 [Compound 11] | – | inhibition at 10 µM (OT receptor): 14.8%
COC(=O)CC(NC(=O)OC(C)(C)C)C(=O)N1CCN(c2ccccc2C)CC1 (centres unmarked) [Compound 12] | – | inhibition at 10 µM (OT receptor): 10.6%
Cc1cc(C(=O)N(CC2CC2)CC2CCCO2)ccc1CNC(=O)N1CCN(Cc2cc(O)cc(O)c2)CC1 (centres unmarked) [Compound 13] | – | inhibition at 10 µM (OT receptor): 16.1%; inhibition at 10 µM (V2 receptor): 13.6%
COc1ccc(-n2c(C)nnc2-c2ccc(CNC(=O)N3CCN(Cc4cc(O)cc(O)c4)CC3)c(C)c2)cn1 [Compound 14] | – | inhibition at 10 µM (OT receptor): 19.6%; inhibition at 10 µM (V2 receptor): 5.8%
O=C(OCc1ccccc1)N1CCC(C(=O)N(CC2CC2)CC2CCCO2)CC1 (centres unmarked) [Compound 15] | – | inhibition at 10 µM (OT receptor): 2.8%; inhibition at 10 µM (V2 receptor): 12.8%; inhibition at 10 µM (human V1a receptor): 19%
Cc1nc(N2CCC(C(=O)N3CCCCc4cc(Cl)ccc43)CC2)ncc1Cl [Compound 184] | 26 nM | –
Cc1nc(N2CCC(C(=O)N3CCCCc4cc(Cl)ccc43)CC2)c2ccccc2n1 [Compound 185] | 32 nM | –
Cc1cc(N2CCC(C(=O)N3CCCCc4cc(Cl)ccc43)CC2)nc(C)n1 [Compound 186] | 405 nM | –
O=C(C1CCN(c2ncnc3cc(Cl)ccc23)CC1)N1CCCCc2cc(Cl)ccc21 [Compound 187] | 66 nM | –
CCc1cnc(N2CCC(C(=O)N(CC3CC3)c3ccc(Cl)cc3)CC2)nc1 [Compound 188] | 227 nM | –
Cc1nc(N2CCC(C(=O)N(CC3CC3)c3ccc(Cl)cc3)CC2)ncc1F [Compound 189] | 48 nM | –

SMILES | IC50 [1] | other results
Cc1nc(N2CCC(C(=O)N(CC3CC3)c3ccc(Cl)cc3)CC2)c2ccccc2n1 [Compound 191] | 74 nM | –
Cc1cc(N2CCC(C(=O)N(CC3CC3)c3ccc(Cl)cc3)CC2)nc(C)n1 [Compound 192] | 1250 nM | –
O=C(C1CCN(c2ncnc3cc(Cl)ccc23)CC1)N(CC1CC1)c1ccc(Cl)cc1 [Compound 193] | 861 nM | –
Cc1cc(C)nc(N2CCC(C(=O)N3CCCC(=O)c4cc(Cl)ccc43)CC2)n1 [Compound 194] | 158 nM | –
Cc1cc(C)nc(N2CCC(C(=O)N3CCCC(O)c4cc(Cl)ccc43)CC2)n1 (centres unmarked) [Compound 195] | 26 nM | –
Cc1cc(C)nc(N2CCC(C(=O)N3CCCC(F)c4cc(Cl)ccc43)CC2)n1 (centres unmarked) [Compound 196] | 84 nM | –
Cc1cc(C)nc(N2CCC(C(=O)N3CCCC(C)(O)c4cc(Cl)ccc43)CC2)n1 (centres unmarked) [Compound 197] | 134 nM | –
CCCN(C(=O)C1CCN(c2nc(C)cc(C)n2)CC1)c1ccc(Cl)cc1 [Compound 198] | 284 nM | –
Cc1cc(C)nc(N2CCC(C(=O)N(CCC(C)C)c3ccc(Cl)cc3)CC2)n1 [Compound 199] | 794 nM | –
Cc1cc(C)nc(N2CCC(C(=O)N(CC3CCC3)c3ccc(Cl)cc3)CC2)n1 [Compound 200] | 229 nM | –
C#CCN(C(=O)C1CCN(c2nc(C)cc(C)n2)CC1)c1ccc(Cl)cc1 [Compound 201] | 28 nM | –
O=C(C1CCN(c2ncc(C3CC3)cn2)CC1)N(CC1CC1)c1ccc(Cl)cc1 [Compound 202] | 348 nM | –
O=C(C1CCN(c2ncc(C(F)(F)F)cn2)CC1)N(CC1CC1)c1ccc(Cl)cc1 [Compound 203] | 570 nM | –
O=C(C1CCN(c2ncc3ccccc3n2)CC1)N(CC1CC1)c1ccc(Cl)cc1 [Compound 204] | 97 nM | –
O=C(C1CCN(c2ncnc3ccc(F)cc23)CC1)N(CC1CC1)c1ccc(Cl)cc1 [Compound 205] | 74 nM | –
O=C(C1CCN(c2nc3ccccc3o2)CC1)N(CC1CC1)c1ccc(Cl)cc1 [Compound 206] | 130 nM | –
O=C(C1CCN(c2nc3ccc(Cl)cc3o2)CC1)N(CC1CC1)c1ccc(Cl)cc1 [Compound 207] | 350 nM | –
O=C(C1CCN(c2ncc3c(n2)CCC3)CC1)N(CC1CC1)c1ccc(Cl)cc1 [Compound 208] | 33 nM | –
O=C(C1CCN(c2ncc(C3CC3)cn2)CC1)N1CCCCc2cc(Cl)ccc21 [Compound 209] | 69 nM | –
O=C(C1CCN(c2ncc(C(F)(F)F)cn2)CC1)N1CCCCc2cc(Cl)ccc21 [Compound 210] | 89 nM | –

SMILES | IC50 [1] | other results
O=C(C1CCN(c2ncc3ccccc3n2)CC1)N1CCCCc2cc(Cl)ccc21 [Compound 211] | 16 nM | –
O=C(C1CCN(c2ncnc3ccc(F)cc23)CC1)N1CCCCc2cc(Cl)ccc21 [Compound 212] | 49 nM | –
O=C(C1CCN(c2nc3ccccc3o2)CC1)N1CCCCc2cc(Cl)ccc21 [Compound 213] | 24 nM | –
O=C(C1CCN(c2nc3ccc(Cl)cc3o2)CC1)N1CCCCc2cc(Cl)ccc21 [Compound 214] | 45 nM | –
O=C(C1CCN(c2ncc3c(n2)CCC3)CC1)N1CCCCc2cc(Cl)ccc21 [Compound 215] | 7 nM | –
Cc1cc(N2CCC(C(=O)N(CC3CC3)c3ccc(Cl)cc3)CC2)ncc1Cl [Compound 216] | 41 nM | –
Cc1cc(Cl)cnc1N1CCC(C(=O)N(CC2CC2)c2ccc(Cl)cc2)CC1 [Compound 217] | 50 nM | –
Cc1cnc(N2CCC(C(=O)N(CC3CC3)c3ccc(Cl)cc3)CC2)c(F)c1 [Compound 218] | 20 nM | –
O=C(C1CCN(c2ncc(Cl)cc2F)CC1)N(CC1CC1)c1ccc(Cl)cc1 [Compound 219] | 61 nM | –
Cc1cc(N2CCC(C(=O)N3CCCCc4cc(Cl)ccc43)CC2)ncc1Cl [Compound 220] | 7 nM | –
Cc1cc(Cl)cnc1N1CCC(C(=O)N2CCCCc3cc(Cl)ccc32)CC1 [Compound 221] | 7 nM | –
Cc1cnc(N2CCC(C(=O)N3CCCCc4cc(Cl)ccc43)CC2)c(F)c1 [Compound 222] | 5 nM | –
O=C(C1CCN(c2ncc(Cl)cc2F)CC1)N1CCCCc2cc(Cl)ccc21 [Compound 223] | 19 nM | –
O=C(C1CCN(c2ccc(F)cn2)CC1)N1CCCCc2cc(Cl)ccc21 [Compound 224] | 11 nM | –
O=C(C1CCN(c2ccc(Cl)cn2)CC1)N1CCCCc2cc(Cl)ccc21 [Compound 225] | 11 nM | –
O=C(C1CCN(c2ccc(C(F)(F)F)cn2)CC1)N1CCCCc2cc(Cl)ccc21 [Compound 226] | 20 nM | –
Cc1cc(C)nc(N2CCC(C(=O)N(CC3(C)COC3)c3ccc(Cl)cc3)CC2)n1 [Compound 227] | 517 nM | –
CCC(CC)N(C(=O)C1CCN(c2nc(C)cc(C)n2)CC1)c1ccc(Cl)cc1 [Compound 228] | 4940 nM | –
O=C1Nc2ccccc2C2(CCN(C(=O)N3CCCCc4cc(Cl)ccc43)CC2)O1 [V:292] | 305 nM | –
O=C(N1CCC2(CC1)OCc1ccccc12)N1CCCCc2cc(Cl)ccc21 [V:293] | 78 nM | –
